Experiments:
[1] = about 20% HQ in the complex, solvent mixture of two solvents of different polarity index
From the text: Although the melanin-inhibiting effectiveness of HQ is desirable, water-based formulations containing high concentration HQ are difficult to prepare due to limitations in its solubility.

[2] = 25° C; cited from earlier work

- times more HQ dissolved in the solvent mixture than in aqueous media [1]: about 38.5 times
SMILES: Oc1ccc(O)cc1 [HQ, 1,4-benzenediol]
- HQ solubility in aqueous media [2]: up to 7.3 g/L
